# Like-named read-outs stand apart in the source and are kept apart here. Marks after values point to notes of the source that are not given here.
# Experiments:
# in vivo [1] = settings: Sprague-Dawley, rat
# [2] = test system: pentylenetetrazol-induced seizure (scMet); experiment: Subcutaneous metrazol seizure test (scMet) in rats
# 6 Hz psychomotor seizure = 6 Hz psychomotor seizure test in mice; settings: Mus musculus, ip; for responders at 30 mg/kg / responders at 100 mg/kg / responders at 300 mg/kg: read-out: 6 Hz, number of mice protected/number of mice tested
# in vivo [3] = settings: male, CF no. 1 albino, mouse, ip
# SWV mice = experiment: Teratogenicity in the SWV mouse model; type: in vivo; settings: for No. of fetuses with NTDs / No. of implants / No. of live fetuses / No. of resorptions / Fetal weight mean ± SD: day 8.5 of gestation; for Fetal weight mean ± SD: in g (unit assumed); for No. of live fetuses, figure in parentheses / No. of resorptions, figure in parentheses: share of implants; for No. of fetuses with NTDs, figure in parentheses: share of live fetuses
# Protocol: The teratogenic properties of the newly designed compounds (1-10) were evaluated in the highly inbred SWV mice strain known for its high susceptibility to VPA-induced neural tube defects (NTDs). Two month old nulligravid females, were mated overnight with males and examined for the presence of vaginal plugs the following morning, and the onset of gestation was considered to be 10 p.m. of the previous night, the midpoint of the dark cycle. At day 8.5 of gestation, each dam received a single i.p. injection of the test compounds in an equimolar dose of 0.9 or 1.8 mmol/kg and the control dams were injected with vehicle (25% water solution of Cremophore EL, Fluka Biochemica Germany). The volume of injection was 10 μL/g of body weight. […] At gestation day […], the dams were euthanized by carbon dioxide asphyxiation followed by cervical dislocation. After the opening the uterus, the location of all viable fetuses and resorption sites were recorded, and the fetuses were examined for the presence of exencephaly or other gross congenital abnormalities. The teratogenicity data (implantations, resorptions and NTDs) were evaluated for significant differences between the control and treated groups by analyzing the contingency table with Fisher's exact test. Statistical analysis was conducted using GraphPad InStat (version 3.06; GraphPad Software, San Diego, Calif., USA), and the results of all tests were considered to be statistically significant when the p-value was less than 0.05
# corneal kindled mouse = experiment: Corneal kindled mouse (CKM) model; type: in vivo; settings: ip, mice
# [4] = test system: maximal electroshock seizure (MES); experiment: Maximal electroshock seizure (MES) test in rats; settings: for ED50: Rattus norvegicus
# [5] = test system: maximal electroshock seizure (MES); experiment: Maximal electroshock seizure (MES) test in mice; settings: Mus musculus, ip; for responders at 30 mg/kg / responders at 100 mg/kg / responders at 300 mg/kg: read-out: MES, number of mice protected/number of mice tested
# mice = experiment: Neurotoxicity (minimal motor impairment, rotarod) in mice; settings: mice i.p.
# hCA VII = target: T1, hCA VII (Homo sapiens, UniProt P43166); experiment: Stopped flow CO2 hydrase assay, hCA VII; type: biochemical; settings: mean from 3 assays, read-out: K1, hCA VII
# T1 construct: made in house
# T1 sequence (P43166 whole entry): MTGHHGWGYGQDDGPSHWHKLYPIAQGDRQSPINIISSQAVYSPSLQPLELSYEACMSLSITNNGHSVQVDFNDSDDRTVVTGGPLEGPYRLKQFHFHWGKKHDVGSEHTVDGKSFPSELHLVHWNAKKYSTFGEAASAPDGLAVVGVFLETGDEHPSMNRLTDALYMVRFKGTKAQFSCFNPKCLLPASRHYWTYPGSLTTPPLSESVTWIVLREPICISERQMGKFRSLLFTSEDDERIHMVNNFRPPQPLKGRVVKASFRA
# Protocol: An Applied Photophysics stopped-flow instrument has been used for assaying the CA catalysed CO2 hydration activity. Phenol red (at a concentration of 0.2 mM) has been used as indicator, working at the absorbance maximum of 557 nm, with 20 mM Hepes (pH 7.5) as buffer, and 20 mM Na2SO4 (for maintaining constant the ionic strength), following the initial rates of the CA-catalyzed CO2 hydration reaction for a period of 10-100 s. The CO2 concentrations ranged from 1.7 to 17 mM for the determination of the kinetic parameters and inhibition constants. […] The uncatalyzed rates were determined in the same manner and subtracted from the total observed rates. Stock solutions of inhibitor (0.1 mM) were prepared in distilled-deionized water and dilutions up to 0.01 nM were done thereafter with the assay buffer. […] The inhibition constants were obtained by non-linear least-squares methods using PRISM 3 and the Cheng-Prusoff equation, as reported earlier and represent the mean from at least three different determinations. All CA isofoms were recombinant ones obtained in-house.
# [6] = test system: pentylenetetrazol-induced seizure (scMet); experiment: Subcutaneous metrazol seizure test (scMet) in mice; settings: Mus musculus, ip, read-out: scMet-ED50
compound,measurement,setting,value
"CCC(C)CCOC(=O)Nc1ccc(S(N)(=O)=O)cc1 (centres unmarked) [Compound 10, 3-methylpentyl(4-sulfamoylphenyl)carbamate]",TD50,in vivo [1]; ip,> 250 mg/kg
same,TD50,"in vivo [1]; male, po",> 500 mg/kg
same,ED50,"[2]; Rattus norvegicus, po, read-out: scMet ED50",> 250 mg/kg
same,scMet ED50,"[2]; rats, p.o.",inactive
same,responders at 30 mg/kg,6 Hz psychomotor seizure; 0.5 h,25%
same,responders at 100 mg/kg,6 Hz psychomotor seizure; 0.5 h,75%
same,responders at 300 mg/kg,6 Hz psychomotor seizure; 0.5 h,100%
same,responders at 30 mg/kg,6 Hz psychomotor seizure; 2 h,0%
same,responders at 100 mg/kg,6 Hz psychomotor seizure; 2 h,50%
same,responders at 300 mg/kg,6 Hz psychomotor seizure; 2 h,100%
same,ED50,"6 Hz psychomotor seizure; read-out: 6 Hz (44 mA)-ED50, mice, i.p., 44 mA",88 mg/kg
same,ED50,"6 Hz psychomotor seizure; read-out: 6 Hz-ED50, mice, i.p., 32 mA",80 mg/kg
same,TD50,in vivo [3],698 mg/kg
same,induction of neural tube defects relative to anticonvulsant effective dose (in words),SWV mice,induced neural tube defects only at doses markedly exceeding their effective dose
same,No. of fetuses with NTDs,SWV mice; single i.p. 0.9 mmol/kg,9
same,No. of implants,SWV mice; single i.p. 0.9 mmol/kg,145
same,No. of live fetuses,SWV mice; single i.p. 0.9 mmol/kg,116
same,No. of resorptions,SWV mice; single i.p. 0.9 mmol/kg,29
same,Fetal weight mean ± SD,SWV mice; single i.p. 0.9 mmol/kg,0.88 ± 0.03
same,"No. of live fetuses, figure in parentheses",SWV mice; single i.p. 0.9 mmol/kg,80%
same,"No. of resorptions, figure in parentheses",SWV mice; single i.p. 0.9 mmol/kg,20%
same,"No. of fetuses with NTDs, figure in parentheses",SWV mice; single i.p. 0.9 mmol/kg,(7.8)*
same,No. of fetuses with NTDs,SWV mice; single i.p. 1.8 mmol/kg,17
same,No. of implants,SWV mice; single i.p. 1.8 mmol/kg,108
same,No. of live fetuses,SWV mice; single i.p. 1.8 mmol/kg,56
same,No. of resorptions,SWV mice; single i.p. 1.8 mmol/kg,52
same,Fetal weight mean ± SD,SWV mice; single i.p. 1.8 mmol/kg,0.87 ± 0.08
same,"No. of live fetuses, figure in parentheses",SWV mice; single i.p. 1.8 mmol/kg,51.9%
same,"No. of resorptions, figure in parentheses",SWV mice; single i.p. 1.8 mmol/kg,48.2%
same,"No. of fetuses with NTDs, figure in parentheses",SWV mice; single i.p. 1.8 mmol/kg,(30.4)*
same,ED50,corneal kindled mouse,59 mg/kg
same,ED50,"[4]; ip, read-out: MES-ED50, rats, i.p.",13 mg/kg
same,ED50,"[4]; po, read-out: MES-ED50, rats, p.o.",28 mg/kg
same,MES-ED50,"[4]; rats, p.o.",23 mg/kg
same,responders at 30 mg/kg,[5]; 0.5 h,75%
same,responders at 100 mg/kg,[5]; 0.5 h,100%
same,responders at 300 mg/kg,[5]; 0.5 h,75%
same,responders at 30 mg/kg,[5]; 2 h,25%
same,responders at 100 mg/kg,[5]; 2 h,100%
same,responders at 300 mg/kg,[5]; 2 h,100%
same,ED50,"[5]; read-out: MES-ED50, mice, i.p.",14 mg/kg
same,"Tox (motor impairment or sedation), number of animals affected/number of animals tested","mice; 30 mg/kg, 0.5 h",1/8
same,"Tox (motor impairment or sedation), number of animals affected/number of animals tested","mice; 30 mg/kg, 2.0 h",0/8
same,"Tox (motor impairment or sedation), number of animals affected/number of animals tested","mice; 100 mg/kg, 0.5 h",0/8
same,"Tox (motor impairment or sedation), number of animals affected/number of animals tested","mice; 100 mg/kg, 2.0 h",0/8
same,"Tox (motor impairment or sedation), number of animals affected/number of animals tested","mice; 300 mg/kg, 0.5 h",1/8
same,"Tox (motor impairment or sedation), number of animals affected/number of animals tested","mice; 300 mg/kg, 2.0 h",0/8
same,Ki,hCA VII,0.351 µM
same,ED50,[6],70 mg/kg
same,melting point,,168 to 169 °C
